Experimental data: PubChem BioAssay (NCI)
Where “and” joins values, the source holds several entries; their conditions need not be identical. Identical values can stand only once.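 Step 1: Grow cells in 96-well plates. Step 2: Expose to compound for 48 hours at 5 concentrations. Step 3: Interpolate endpoints linearly; if unreached, use highest concentration. At the GI50, growth is halved. TGI denotes the concentration required for complete inhibition of growth.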

Columns and labels:
Experiment in all cases: inhibition of tumour cell growth, NCI panel, 48 h
MOLT-4 leukemia = system: MOLT-4 leukemia
NCI-H23 lung = system: NCI-H23 lung
T-47D breast = system: T-47D breast
SK-MEL-28 melanoma = system: SK-MEL-28 melanoma
SNB-19 CNS = system: SNB-19 CNS
A498 renal = system: A498 renal
HCT-116 colon = system: HCT-116 colon
CAKI-1 renal = system: CAKI-1 renal
MALME-3M melanoma = system: MALME-3M melanoma
CCRF-CEM leukemia = system: CCRF-CEM leukemia

| Structure (SMILES) | TGI (MOLT-4 leukemia) [µM] | GI50 (NCI-H23 lung) | TGI (NCI-H23 lung) [µM] | GI50 (T-47D breast) | TGI (T-47D breast) [µM] | TGI (SK-MEL-28 melanoma) [µM] | TGI (SNB-19 CNS) [µM] | GI50 (A498 renal) | TGI (A498 renal) [µM] | GI50 (HCT-116 colon) | TGI (HCT-116 colon) [µM] | TGI (CAKI-1 renal) [µM] | TGI (MALME-3M melanoma) [µM] | TGI (CCRF-CEM leukemia) [µM] | GI50 (MOLT-4 leukemia) [µM] | GI50 (SK-MEL-28 melanoma) [µM] | GI50 (SNB-19 CNS) [µM] | GI50 (CAKI-1 renal) [µM] | GI50 (MALME-3M melanoma) [µM] | GI50 (CCRF-CEM leukemia) [µM] |
| --- | --- | --- | --- | --- | --- | --- | --- | --- | --- | --- | --- | --- | --- | --- | --- | --- | --- | --- | --- | --- |
| N#Cc1c2c(c(-c3cccs3)n(C3OC(CO)C(O)C(O)C3O)c1=S)CCc1ccccc1-2 (centres undefined) | > 100 | 13.5 µM and > 39.3 µM | > 100 | > 25.1 µM and 7.83 µM | > 100 | > 100 | > 100 | 5.6 µM and 15.7 µM | > 100 | 7.39 µM and 15.5 µM | > 100 | > 100 | > 100 | > 100 | – | – | – | – | – | – |
| CCCn1c(N)c(C(=O)CNc2ccc(I)cc2)c(=O)[nH]c1=O | > 100 | > 61.4 µM | > 100 | > 100 µM | > 100 | > 100 | > 59.5 | 27.5 µM | > 100 | 0.677 µM | > 100 | > 100 | > 100 | > 100 | 0.422 | > 100 | 2.02 | 6.53 | 45.6 | 0.543 |
| Cc1cc(O)cc2c1c(=O)c1ccccc1n2C | > 100 | – | > 100 | – | > 100 | – | > 100 | – | > 100 | – | > 100 | > 100 | – | > 100 | – | – | – | – | – | – |
| Nc1c(C(=O)Nc2cccc(Br)c2)sc2nc3c(cc12)C(O)CCC3 (centres undefined) | 98 | 0.761 µM | > 100 | 13.9 µM | > 100 | > 100 | 53.9 | 0.207 µM | 3.91 | 0.483 µM | > 51.6 | > 100 | > 87.1 | > 74.9 | 0.518 | 4.43 | 2.52 | 0.439 | 0.522 | 0.357 |
| O=C(Nc1cc(-c2cccnc2)nc(NCCCN2CCOCC2)n1)c1cc(Br)cc(C(F)(F)F)c1 | 13.1 | 3.55 µM | 15 | 3.72 µM | 16.1 | 3.48 | 5.75 | 3.43 µM | 13.4 | 2.09 µM | 4.81 | 10.7 | 3.58 | 12.9 | 3.63 | 1.73 | 2.5 | 2.53 | 1.76 | 3.54 |
| C#CCN(Cc1nc2cc(C(F)(F)F)ccc2nc1-c1ccccc1)c1ccc(F)c(F)c1 | > 100 | 94.3 µM | > 100 | 63.5 µM | > 100 | > 100 | > 100 | 39.9 µM | > 100 | 38 µM | > 100 | – | – | > 100 | 30.3 | > 100 | 92.5 | – | – | 24 |
| CC[C@H](NC(=O)[C@H](CS(=O)(=O)CC1CC1)N[C@@H](c1ccc(F)cc1)C(F)(F)F)C(=O)C(=O)NC1CC1 | > 100 | > 100 µM | > 100 | > 100 µM | > 100 | > 100 | > 100 | > 100 µM | > 100 | > 100 µM | > 100 | > 100 | > 100 | > 100 | 32.8 | > 100 | > 100 | > 100 | > 100 | > 100 |
| Cc1ncc([N+](=O)[O-])n1CCNC(=O)CCCCCn1ccnc1[N+](=O)[O-] | > 100 | – | > 100 | – | > 100 | – | > 100 | – | > 100 | – | > 100 | > 100 | > 100 | > 100 | – | – | – | – | – | – |
| C=CCCC(=O)N1C=CC(=O)[C@H](O)[C@@H]1/C=C/c1ccccc1 | > 32.5 | 23.6 µM | > 32.5 | 15.5 µM | > 32.5 | > 32.5 | > 32.5 | > 32.5 µM | > 32.5 | 6.24 µM | > 32.5 | > 32.5 | > 32.5 | > 32.5 | 15.6 | 17.4 | 17.2 | 25.1 | 9.61 | 5.61 |
| Cc1cc(S(=O)(=O)Nc2nc3cc(Cl)ccc3o2)c(SCc2ccccc2)cc1Cl | > 100 | 26.5 µM | 54.2 | 17.8 µM | 39.7 | 75.1 | 46.9 | 18.8 µM | 35.5 | 18.7 µM | 42.7 | 49 | 48.5 | 16.2 | 37.8 | 27.3 | 21.2 | 22.9 | 19.3 | 3.53 |
| Cn1ncc(-c2ccc3c(=O)[nH]nc(CN)c3c2)c1-c1c(F)cc2ccccc2c1C#N | 12.6 | – | – | 3.48 µM | 17.6 | 23 | 24.1 | 11.7 µM | 23.9 | 3.69 µM | 14.5 | 19 | 17.6 | 57.3 | 2.29 | 10.6 | 9.44 | 5.53 | 4.57 | 10.7 |
| CC1(C)[C@@H](OC(N)=O)C=C[C@]2(C=O)[C@H]3CC[C@]4(C)[C@@H](c5ccc(=O)oc5)[C@@H](Cl)C[C@]4(O)C3=CC[C@@H]12 | 0.00724 | 0.00298 µM | 0.0102 | 0.00635 µM | 0.0175 | 0.0156 | 0.0253 | 0.00594 µM | 0.0177 | 0.00409 µM | 0.00818 | 0.00846 | 0.0109 | 0.0117 | < 0.0025 | 0.00642 | 0.00782 | 0.00446 | 0.00525 | 0.00384 |
| OC(COc1cccc2ccccc12)CN1CCN(c2ccccc2Cl)CC1 (centres undefined) | 59.5 | 13.3 µM | 29.8 | 13.9 µM | 29.6 | 27.9 | 30.2 | 12.3 µM | 24.9 | 10.8 µM | 24.5 | 22.7 | 25.9 | 69.1 | 12.6 | 14.5 | 14.5 | 7.23 | 10.3 | 11.4 |
| COC(=O)C(Cc1nc2ccccc2[nH]c1=O)C(=O)C(=O)Nc1cc(C(F)(F)F)ccc1Cl (centres undefined) | 48.2 | – | 30.4 | – | 44.7 | > 100 | – | – | > 100 | – | 32.1 | 33.4 | 31.4 | 48.2 | – | – | – | – | – | – |
